Where a name gives a salt, the structure may show the parent alone.
biological target: MYT1 protein (Homo sapiens (Human), UniProt Q99640); assay: Test for binding to ATP binding site of MYT1 (Kinase Tracer 178 / Eu-Anti-GST antibody TR-FRET); settings: ATP binding site of MYT1, 30 minutes at room temperature
Sequence (Q99640 whole entry): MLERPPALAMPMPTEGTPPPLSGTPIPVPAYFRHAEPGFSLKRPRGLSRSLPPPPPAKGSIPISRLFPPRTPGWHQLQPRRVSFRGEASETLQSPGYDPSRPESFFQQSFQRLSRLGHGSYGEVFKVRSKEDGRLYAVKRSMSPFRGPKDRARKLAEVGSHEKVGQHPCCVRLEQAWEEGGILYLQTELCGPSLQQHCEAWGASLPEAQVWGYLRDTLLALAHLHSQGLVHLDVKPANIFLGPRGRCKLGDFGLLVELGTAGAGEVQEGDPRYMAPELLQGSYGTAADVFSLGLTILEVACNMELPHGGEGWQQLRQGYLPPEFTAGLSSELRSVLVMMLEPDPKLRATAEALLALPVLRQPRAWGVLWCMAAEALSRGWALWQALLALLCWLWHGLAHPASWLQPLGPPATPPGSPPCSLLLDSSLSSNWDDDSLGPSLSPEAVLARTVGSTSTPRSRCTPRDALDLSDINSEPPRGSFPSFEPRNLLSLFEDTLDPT

| SMILES | IC50 |
| --- | --- |
| CC(=O)Nc1cc2c(-c3ccc(F)c4[nH]ncc34)c(N)c(=O)[nH]c2c2nccnc12 [Compound G8, N-[8-amino-7-(7-fluoro-1H-indazol-4-yl)-9-oxo-10H-pyrido[2,3-f]quinoxalin-5-yl]acetamide] | 1.4 nM |
| CC(C)Nc1cc2c(-c3ccc(F)c4[nH]ncc34)c(N)c(=O)[nH]c2c2nccnc12 [Compound G9, 8-Amino-7-(7-fluoro-1H-indazol-4-yl)-5-(propan-2-ylamino)-10H-pyrido[2,3-f]quinoxalin-9-one] | 4.4 nM |
| COc1cc2c(-c3ccc(F)c4[nH]ncc34)c(N)c(=O)[nH]c2c2nccnc12 [Compound G10, 8-Amino-7-(7-fluoro-1H-indazol-4-yl)-5-methoxy-10H-pyrido[2,3-f]quinoxalin-9-one] | 2.2 nM |
| Nc1c(-c2ccc(F)c3[nH]ncc23)c2cc(OCC3CC3)c3nccnc3c2[nH]c1=O [Compound G11, 8-Amino-5-(cyclopropylmethoxy)-7-(7-fluoro-1H-indazol-4-yl)-10H-pyrido[2,3-f]quinoxalin-9-one] | 2.5 nM |
| N#C[C@H]1C[C@H](Oc2cc3c(-c4ccc(F)c5[nH]ncc45)c(N)c(=O)[nH]c3c3nccnc23)C1 [Compound G12, (1r,3r)-3-[[8-Amino-7-(7-fluoro-1H-indazol-4-yl)-9-oxo-10H-pyrido[2,3-f]quinoxalin-5-yl]oxy]cyclobutane-1-carbonitrile] | 0.95 nM |
| CC[C@H](C)Oc1cc2c(-c3ccc(F)c4[nH]ncc34)c(N)c(=O)[nH]c2c2nccnc12 [Compound G13, 8-Amino-5-[(2S)-butan-2-yl]oxy-7-(7-fluoro-1H-indazol-4-yl)-10H-pyrido[2,3-f]quinoxalin-9-one] | 0.49 nM |
| CC[C@@H](C)Oc1cc2c(-c3ccc(F)c4[nH]ncc34)c(N)c(=O)[nH]c2c2nccnc12 [Compound G14, 8-Amino-5-[(2R)-butan-2-yl]oxy-7-(7-fluoro-1H-indazol-4-yl)-10H-pyrido[2,3-f]quinoxalin-9-one] | 0.69 nM |
| CC(C)Oc1cc2c(-c3ccc(F)c4[nH]ncc34)c(N)c(=O)[nH]c2c2nccnc12 [Compound G15, 8-Amino-7-(7-fluoro-1H-indazol-4-yl)-5-propan-2-yloxy-10H-pyrido[2,3-f]quinoxalin-9-one] | 1.6 nM |
| Nc1c(-c2ccc(F)c3[nH]ncc23)c2cc(O[C@H]3C[C@@H](F)C3)c3nccnc3c2[nH]c1=O [Compound G17, 8-Amino-5-((1s,3s)-3-fluorocyclobutyl)oxy-7-(7-fluoro-1H-indazol-4-yl)-10H-pyrido[2,3-f]quinoxalin-9-one] | 0.85 nM |
| Nc1c(-c2ccc(F)c3[nH]ncc23)c2cc(OCCC(F)F)c3nccnc3c2[nH]c1=O [Compound G18, 8-Amino-5-(3,3-difluoropropoxy)-7-(7-fluoro-1H-indazol-4-yl)-10H-pyrido[2,3-f]quinoxalin-9-one] | 0.79 nM |
| Nc1c(-c2ccc(F)c3[nH]ncc23)c2cc(Br)c3cnsc3c2[nH]c1=O [Compound H1, 7-Amino-4-bromo-6-(7-fluoro-1H-indazol-4-yl)-9H-[1,2]thiazolo[4,5-h]quinolin-8-one] | 6.2 nM |
| Cc1cc2c(-c3ccc(F)c4[nH]ncc34)c(N)c(=O)[nH]c2c2sncc12 [Compound H2, 7-Amino-6-(7-fluoro-1H-indazol-4-yl)-4-methyl-9H-[1.2]thiazolo[4,5-h]quinolin-8-one] | 1.8 nM |
| Cn1ncc2c(Br)cc3c(-c4ccc(F)c5[nH]ncc45)c(N)c(=O)[nH]c3c21 [Compound I1, 7-Amino-4-bromo-6-(7-fluoro-1H-indazol-4-yl)-1-methyl-9H-pyrazolo[4,3-h]quinolin-8-one] | 33 nM |
| Cc1cc2c(-c3ccc(F)c4[nH]ncc34)c(N)c(=O)[nH]c2c2c1cnn2C [Compound I2, 7-Amino-6-(7-fluoro-1H-indazol-4-yl)-1,4-dimethyl-9H-pyrazolo[4,3-h]quinolin-8-one] | 16 nM |
| Cn1ncc2c(C3CC3)cc3c(-c4ccc(F)c5[nH]ncc45)c(N)c(=O)[nH]c3c21 [Compound I3, 7-Amino-4-cyclopropyl-6-(7-fluoro-1H-indazol-4-yl)-1-methyl-9H-pyrazolo[4,3-h]quinolin-8-one] | 8 nM |
| Nc1c(-c2ccc(F)c3[nH]ncc23)c2cc(Br)c3cncnc3c2[nH]c1=O [Compound J1, 8-Amino-5-bromo-7-(7-fluoro-1H-indazol-4-yl)-10H-pyrido[3,2-h]quinazolin-9-one] | 7.3 nM |
| Cc1cc2c(-c3ccc(F)c4[nH]ncc34)c(N)c(=O)[nH]c2c2ncncc12 [Compound J2, 8-Amino-7-(7-fluoro-1H-indazol-4-yl)-5-methyl-10H-pyrido[3,2-h]quinazolin-9-one] | 3.1 nM |
| Nc1c(-c2ccc(F)c3[nH]ncc23)c2cc(C3CC3)c3cncnc3c2[nH]c1=O [Compound J3, 8-Amino-5-cyclopropyl-7-(7-fluoro-1H-indazol-4-yl)-10H-pyrido[3,2-h]quinazolin-9-one] | 3.5 nM |
| Nc1c(-c2ccc(F)c3[nH]ncc23)c2cc(Br)c3ncsc3c2[nH]c1=O [Compound K1, 7-Amino-4-bromo-6-(7-fluoro-1H-indazol-4-yl)-9H-[1,3]thiazolo[4,5-h]quinolin-8-one] | 1.7 nM |

| SMILES | IC50 |
| --- | --- |
| Cc1cc2c(-c3ccc(F)c4[nH]ncc34)c(N)c(=O)[nH]c2c2scnc12 [Compound K2, 7-Amino-6-(7-fluoro-1H-indazol-4-yl)-4-methyl-9H-[1,3]thiazolo[4,5-h]quinolin-8-one] | 1.2 nM |
| Nc1c(-c2ccc(F)c3[nH]ncc23)c2cc(C3CC3)c3ncsc3c2[nH]c1=O [Compound K3, 7-Amino-4-cyclopropyl-6-(7-fluoro-1H-indazol-4-yl)-9H-[1,3]thiazolo[4,5-h]quinolin-8-one] | 50 nM |
| Nc1c(-c2ccc(F)c3[nH]ncc23)c2cc(Br)c3ccsc3c2[nH]c1=O [Compound L1, 7-Amino-4-bromo-6-(7-fluoro-1H-indazol-4-yl)-9H-thieno[3,2-h]quinolin-8-one] | 3 nM |
| Cc1cc2c(-c3ccc(F)c4[nH]ncc34)c(N)c(=O)[nH]c2c2sccc12 [Compound L2, 7-Amino-6-(7-fluoro-1H-indazol-4-yl)-4-methyl-9H-thieno[3,2-h]quinolin-8-one] | 1.8 nM |
| Cn1cnc2c3[nH]c(=O)c(N)c(-c4ccc(F)c5[nH]ncc45)c3cc(Br)c21 [Compound M1, 7-Amino-4-bromo-6-(7-fluoro-1H-indazol-4-yl)-3-methyl-9H-imidazo[4,5-h]quinolin-8-one] | 10 nM |
| Cc1cc2c(-c3ccc(F)c4[nH]ncc34)c(N)c(=O)[nH]c2c2ncn(C)c12 [Compound M2, 7-Amino-6-(7-fluoro-1H-indazol-4-yl)-3,4-dimethyl-9H-imidazo[4,5-h]quinolin-8-one] | 14 nM |
| Cn1cnc2c3[nH]c(=O)c(N)c(-c4ccc(F)c5[nH]ncc45)c3ccc21 [Compound M3, 7-Amino-6-(7-fluoro-1H-indazol-4-yl)-3-methyl-9H-imidazo[4,5-h]quinolin-8-one] | 99 nM |
| Nc1c(-c2ccc(F)c3[nH]ncc23)c2cc(Br)c3scnc3c2[nH]c1=O [Compound N1, 7-Amino-4-bromo-6-(7-fluoro-1H-indazol-4-yl)-9H-[1,3]thiazolo[5,4-h]quinolin-8-one] | 5.3 nM |
| Cc1nccc2c1c(Br)cc1c(-c3ccc(F)c4[nH]ncc34)c(N)c(=O)[nH]c12 [Compound P2, 3-Amino-6-bromo-4-(7-fluoro-1H-indazol-4-yl)-7-methyl-1H-1,8-phenanthrolin-2-one] | 13 nM |
| Nc1c(-c2ccc(F)c3[nH]ncc23)c2cc(Br)c3cnccc3c2[nH]c1=O [Compound P3, 3-Amino-6-bromo-4-(7-fluoro-1H-indazol-4-yl)-1H-1,8-phenanthrolin-2-one] | 12 nM |
| Nc1c(-c2cccc(O)c2)c2ccc3cnccc3c2[nH]c1=O [Compound P5, 3-Amino-4-(3-hydroxyphenyl)-1H-1,8-phenanthrolin-2-one; hydrobromide] | 3.9 nM |
| Nc1c(-c2ccc(F)c3[nH]ncc23)c2cnc3ccccc3c2[nH]c1=O [Compound R1, 3-Amino-4-(7-fluoro-1H-indazol-4-yl)-1H-benzo[h][1,6]naphthyridin-2-one] | 3.4 nM |
| Cc1cc2c(nn1)c(Br)cc1c(-c3ccc(F)c4[nH]ncc34)c(N)c(=O)[nH]c12 [Compound S1, 3-Amino-6-bromo-4-(7-fluoro-1H-indazol-4-yl)-9-methyl-1H-pyrido[2,3-f]cinnolin-2-one] | 370 nM |
| COc1ccc2c(n1)c(OC)cc1c(-c3ccc(F)c4[nH]ncc34)c(N)c(=O)[nH]c12 [Compound T1, 3-Amino-4-(7-fluoro-1H-indazol-4-yl)-6,8-dimethoxy-1H-1,7-phenanthrolin-2-one] | 4.9 nM |
| COc1ccc2c(n1)c(OC(C)C)cc1c(-c3ccc(F)c4[nH]ncc34)c(N)c(=O)[nH]c12 [Compound T2, 3-Amino-4-(7-fluoro-1H-indazol-4-yl)-8-methoxy-6-propan-2-yloxy-1H-1,7-phenanthrolin-2-one] | 7.6 nM |
| CCOc1cc2c(-c3ccc(F)c4[nH]ncc34)c(N)c(=O)[nH]c2c2ccc(OC)nc12 [Compound T3, 3-Amino-6-ethoxy-4-(7-fluoro-1H-indazol-4-yl)-8-methoxy-1H-1,7-phenanthrolin-2-one] | 6.1 nM |
| COc1cc2c(-c3ccc(F)c4[nH]ncc34)c(N)c(=O)[nH]c2c2ccc(=O)[nH]c12 [Compound T4, 3-Amino-4-(7-fluoro-1H-indazol-4-yl)-6-methoxy-1,7-dihydro-1,7-phenanthroline-2,8-dione] | 3.2 nM |
| CC(C)Oc1cc2c(-c3ccc(F)c4[nH]ncc34)c(N)c(=O)[nH]c2c2ccc(=O)[nH]c12 [Compound T5, 3-Amino-4-(7-fluoro-1H-indazol-4-yl)-6-propan-2-yloxy-1,7-dihydro-1,7-phenanthroline-2,8-dione] | 3.5 nM |
| CCOc1cc2c(-c3ccc(F)c4[nH]ncc34)c(N)c(=O)[nH]c2c2ccc(=O)[nH]c12 [Compound T6, 3-Amino-6-ethoxy-4-(7-fluoro-1H-indazol-4-yl)-1,7-dihydro-1,7-phenanthroline-2,8-dione] | 2.2 nM |

— patent US20260062412A1, “NITROGEN-CONTAINING HETEROCYCLIC COMPOUND HAVING MYT1 INHIBITORY ACTIVITY” (CHUGAI SEIYAKU KABUSHIKI KAISHA, priority 2023, published 2026)
